From ChEMBL document CHEMBL2375335, “Discovery of a novel series of non-nucleoside thumb pocket 2 HCV NS5B polymerase inhibitors” (Bioorg Med Chem Lett, 2013)
Blank lines part the entries; values can stand above or below the compound they belong to. The source made the active and inactive calls. No cut-off for these calls is given here.

Legend:
[1] = Inhibition of HCV genotype 1b isolate BK NS5B Cdelta21 RNA dependent RNA polymerase using [3H]UTP as substrate incubated for 25 mins prior to substrate addition measured after 120 mins by scintillation proximity assay; set-up: species or system Hepatitis C virus (isolate BK)
[2] = Inhibition of calf thymus RNA polymerase 2; set-up: species or system Bos taurus
Cytochrome P450 2D6 = Cytochrome P450 2D6 (Homo sapiens, UniProt P10635); assay: Inhibition of CYP2D6 (unknown origin); format: ADME
Hepatitis C virus = assay: Antiviral activity against HCV genotype 1b infected in HuH7 cells assessed as inhibition of viral replication after 48 hrs by RT-PCR analysis; format: functional, organism-based; details: Hepacivirus hominis, Huh-7
[3] = target: RNA-directed RNA polymerase (Hepacivirus hominis, UniProt O39930, M414T); assay: Inhibition of HCV genotype 1b isolate BK NS5B Cdelta21 RNA dependent RNA polymerase M414T mutant using [3H]UTP as substrate incubated for 25 mins prior to substrate addition measured after 120 mins by scintillation proximity assay; set-up: species or system Hepatitis C virus (isolate BK)
[4] = target: RNA-directed RNA polymerase (Hepacivirus hominis, UniProt O39930, M423T); assay: Inhibition of HCV genotype 1b isolate BK NS5B Cdelta21 RNA dependent RNA polymerase M423T mutant using [3H]UTP as substrate incubated for 25 mins prior to substrate addition measured after 120 mins by scintillation proximity assay; set-up: species or system Hepatitis C virus (isolate BK)
Cytochrome P450 1A2 = target: T1, Cytochrome P450 1A2 (Homo sapiens, UniProt P05177); assay: Inhibition of CYP1A2 (unknown origin); format: ADME
T1 sequence (P05177 whole entry): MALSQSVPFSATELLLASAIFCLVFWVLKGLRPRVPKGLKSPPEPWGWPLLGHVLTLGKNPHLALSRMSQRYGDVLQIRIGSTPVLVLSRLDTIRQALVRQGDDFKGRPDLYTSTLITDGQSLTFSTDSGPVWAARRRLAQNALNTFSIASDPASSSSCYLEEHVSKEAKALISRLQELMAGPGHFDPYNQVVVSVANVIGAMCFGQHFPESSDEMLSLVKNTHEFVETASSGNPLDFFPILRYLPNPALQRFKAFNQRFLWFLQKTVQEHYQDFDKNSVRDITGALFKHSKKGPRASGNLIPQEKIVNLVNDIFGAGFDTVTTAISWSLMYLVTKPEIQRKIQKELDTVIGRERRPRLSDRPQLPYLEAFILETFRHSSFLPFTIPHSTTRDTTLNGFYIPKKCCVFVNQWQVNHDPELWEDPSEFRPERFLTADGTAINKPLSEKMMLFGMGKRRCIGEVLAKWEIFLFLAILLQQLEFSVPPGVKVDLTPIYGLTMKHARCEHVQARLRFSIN

[5] = target: RNA-directed RNA polymerase (Hepacivirus hominis, UniProt O39930, P495S); assay: Inhibition of HCV genotype 1b isolate BK NS5B Cdelta21 RNA dependent RNA polymerase P495S mutant using [3H]UTP as substrate incubated for 25 mins prior to substrate addition measured after 120 mins by scintillation proximity assay; set-up: species or system Hepatitis C virus (isolate BK)
Cytochrome P450 2C19 = Cytochrome P450 2C19 (Homo sapiens, UniProt P33261); assay: Inhibition of CYP2C19 (unknown origin); format: ADME
[6] = Inhibition of HCV genotype 1b isolate BK NS5B Cdelta21 RNA dependent RNA polymerase L419M mutant using [3H]UTP as substrate incubated for 25 mins prior to substrate addition measured after 120 mins by scintillation proximity assay; set-up: species or system Hepatitis C virus (isolate BK)
[7] = Solubility of the compound in buffer after 24 hrs at pH 7.2 by shake flask method; format: physicochemical
Cytochrome P450 2C9 = Cytochrome P450 2C9 (Homo sapiens, UniProt P11712); assay: Inhibition of CYP2C9 (unknown origin); format: ADME
[8] = Half life in human liver microsomes at 10 uM; format: ADME, Microsome
Cytochrome P450 3A4 = Cytochrome P450 3A4 (Homo sapiens, UniProt P08684); assay: Inhibition of CYP3A4 (unknown origin); format: ADME
[9] = system: Hepatitis C virus (isolate BK); assay: Ratio of IC50 for HCV genotype 1b isolate BK NS5B Cdelta21 RNA dependent RNA polymerase L419M mutant to IC50 for HCV genotype 1b isolate BK wild type NS5B Cdelta21 RNA dependent RNA polymerase
[10] = Permeability from apical to basal side of human Caco2 cells at pH 7.4; format: ADME, cell-based; details: Caco-2, pH 7.4, read-out: permeability

Sequence of RNA-directed RNA polymerase (Hepacivirus hominis, UniProt O39930, M423T) (O39930 entry or part of it M423T): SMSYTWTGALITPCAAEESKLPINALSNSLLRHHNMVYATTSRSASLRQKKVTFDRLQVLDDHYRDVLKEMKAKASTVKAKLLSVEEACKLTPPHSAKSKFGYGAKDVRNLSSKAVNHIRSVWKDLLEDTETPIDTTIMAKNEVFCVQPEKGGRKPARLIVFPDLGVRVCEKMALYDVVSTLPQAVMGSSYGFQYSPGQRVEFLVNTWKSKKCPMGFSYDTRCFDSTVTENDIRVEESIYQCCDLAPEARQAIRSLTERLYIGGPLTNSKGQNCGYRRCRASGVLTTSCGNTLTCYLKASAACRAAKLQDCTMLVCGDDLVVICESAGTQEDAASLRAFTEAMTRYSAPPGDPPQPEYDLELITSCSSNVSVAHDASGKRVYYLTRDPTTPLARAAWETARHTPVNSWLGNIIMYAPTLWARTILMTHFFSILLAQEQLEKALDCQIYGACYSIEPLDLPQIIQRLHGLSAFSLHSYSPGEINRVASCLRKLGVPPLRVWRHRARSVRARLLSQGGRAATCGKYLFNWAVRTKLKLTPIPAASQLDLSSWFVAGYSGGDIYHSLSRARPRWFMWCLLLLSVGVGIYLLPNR
Sequence of Cytochrome P450 2C19 (P33261 whole entry): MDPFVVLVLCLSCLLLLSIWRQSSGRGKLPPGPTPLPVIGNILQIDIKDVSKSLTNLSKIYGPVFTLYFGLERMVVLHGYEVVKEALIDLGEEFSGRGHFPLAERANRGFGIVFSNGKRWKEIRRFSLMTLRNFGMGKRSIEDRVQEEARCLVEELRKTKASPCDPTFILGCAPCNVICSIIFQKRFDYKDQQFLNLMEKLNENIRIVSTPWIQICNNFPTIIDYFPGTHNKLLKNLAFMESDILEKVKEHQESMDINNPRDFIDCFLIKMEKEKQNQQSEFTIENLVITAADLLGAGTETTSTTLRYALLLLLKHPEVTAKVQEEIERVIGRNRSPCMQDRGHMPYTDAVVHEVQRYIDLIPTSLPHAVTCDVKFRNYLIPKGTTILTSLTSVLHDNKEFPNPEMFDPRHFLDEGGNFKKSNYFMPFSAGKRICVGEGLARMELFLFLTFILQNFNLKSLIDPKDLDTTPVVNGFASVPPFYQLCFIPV
Sequence of Cytochrome P450 2C9 (P11712 whole entry): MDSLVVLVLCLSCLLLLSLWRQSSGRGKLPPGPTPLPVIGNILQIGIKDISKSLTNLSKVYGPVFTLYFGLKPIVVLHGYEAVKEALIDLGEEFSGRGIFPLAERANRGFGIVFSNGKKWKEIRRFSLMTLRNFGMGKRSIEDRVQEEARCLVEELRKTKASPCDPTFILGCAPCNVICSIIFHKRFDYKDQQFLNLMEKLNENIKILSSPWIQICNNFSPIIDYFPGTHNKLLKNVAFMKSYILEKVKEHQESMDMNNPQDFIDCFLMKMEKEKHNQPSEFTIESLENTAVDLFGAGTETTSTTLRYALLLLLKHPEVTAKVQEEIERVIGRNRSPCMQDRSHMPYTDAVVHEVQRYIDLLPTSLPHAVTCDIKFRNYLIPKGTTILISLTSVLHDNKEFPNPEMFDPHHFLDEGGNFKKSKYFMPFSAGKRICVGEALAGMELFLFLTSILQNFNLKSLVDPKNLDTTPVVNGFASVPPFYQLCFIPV
Sequence of Cytochrome P450 3A4 (P08684 whole entry): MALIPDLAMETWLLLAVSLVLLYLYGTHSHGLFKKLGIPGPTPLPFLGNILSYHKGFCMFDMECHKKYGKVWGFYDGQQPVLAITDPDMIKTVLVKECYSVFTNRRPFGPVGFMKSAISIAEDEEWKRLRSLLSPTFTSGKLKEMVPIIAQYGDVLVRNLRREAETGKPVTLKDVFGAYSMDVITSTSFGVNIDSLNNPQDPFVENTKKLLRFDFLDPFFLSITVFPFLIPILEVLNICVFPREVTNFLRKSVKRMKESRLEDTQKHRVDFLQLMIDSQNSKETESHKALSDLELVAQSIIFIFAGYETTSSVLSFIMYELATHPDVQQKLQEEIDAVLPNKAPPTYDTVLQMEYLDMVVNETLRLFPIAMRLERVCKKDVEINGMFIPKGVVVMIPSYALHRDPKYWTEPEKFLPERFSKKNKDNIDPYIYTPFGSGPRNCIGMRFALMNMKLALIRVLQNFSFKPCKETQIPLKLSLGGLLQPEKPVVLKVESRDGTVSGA
Sequence of Cytochrome P450 2D6 (P10635 whole entry): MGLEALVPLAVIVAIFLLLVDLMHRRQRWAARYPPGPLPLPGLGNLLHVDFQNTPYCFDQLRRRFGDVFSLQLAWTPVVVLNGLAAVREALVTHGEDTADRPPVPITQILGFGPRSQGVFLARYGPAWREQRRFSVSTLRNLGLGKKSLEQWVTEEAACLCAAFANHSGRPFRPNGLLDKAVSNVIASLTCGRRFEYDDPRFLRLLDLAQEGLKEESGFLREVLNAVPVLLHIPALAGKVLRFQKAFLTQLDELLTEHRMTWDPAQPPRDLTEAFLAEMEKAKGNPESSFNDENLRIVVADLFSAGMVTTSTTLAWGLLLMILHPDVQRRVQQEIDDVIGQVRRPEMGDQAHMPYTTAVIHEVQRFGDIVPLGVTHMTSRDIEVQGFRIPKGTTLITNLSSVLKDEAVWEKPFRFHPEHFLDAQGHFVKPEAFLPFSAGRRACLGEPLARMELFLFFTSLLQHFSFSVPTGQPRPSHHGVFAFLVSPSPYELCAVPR
Sequence of RNA-directed RNA polymerase (Hepacivirus hominis, UniProt O39930, M414T) (O39930 entry or part of it M414T): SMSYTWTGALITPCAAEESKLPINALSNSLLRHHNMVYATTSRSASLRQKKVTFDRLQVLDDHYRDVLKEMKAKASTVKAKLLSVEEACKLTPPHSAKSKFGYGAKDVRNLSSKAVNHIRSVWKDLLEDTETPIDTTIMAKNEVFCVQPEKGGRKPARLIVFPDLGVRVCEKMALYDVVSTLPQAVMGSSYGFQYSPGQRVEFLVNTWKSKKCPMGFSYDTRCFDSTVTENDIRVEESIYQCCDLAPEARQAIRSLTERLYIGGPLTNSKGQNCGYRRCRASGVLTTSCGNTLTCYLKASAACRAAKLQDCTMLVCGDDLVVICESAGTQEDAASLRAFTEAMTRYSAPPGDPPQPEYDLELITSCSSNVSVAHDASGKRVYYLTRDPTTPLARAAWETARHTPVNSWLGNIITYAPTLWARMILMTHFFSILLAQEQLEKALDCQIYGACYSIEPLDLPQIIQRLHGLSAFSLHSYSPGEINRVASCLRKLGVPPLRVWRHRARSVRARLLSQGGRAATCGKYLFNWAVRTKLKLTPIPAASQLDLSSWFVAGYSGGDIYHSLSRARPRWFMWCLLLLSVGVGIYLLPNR
Sequence of RNA-directed RNA polymerase (Hepacivirus hominis, UniProt O39930, P495S) (O39930 entry or part of it P495S): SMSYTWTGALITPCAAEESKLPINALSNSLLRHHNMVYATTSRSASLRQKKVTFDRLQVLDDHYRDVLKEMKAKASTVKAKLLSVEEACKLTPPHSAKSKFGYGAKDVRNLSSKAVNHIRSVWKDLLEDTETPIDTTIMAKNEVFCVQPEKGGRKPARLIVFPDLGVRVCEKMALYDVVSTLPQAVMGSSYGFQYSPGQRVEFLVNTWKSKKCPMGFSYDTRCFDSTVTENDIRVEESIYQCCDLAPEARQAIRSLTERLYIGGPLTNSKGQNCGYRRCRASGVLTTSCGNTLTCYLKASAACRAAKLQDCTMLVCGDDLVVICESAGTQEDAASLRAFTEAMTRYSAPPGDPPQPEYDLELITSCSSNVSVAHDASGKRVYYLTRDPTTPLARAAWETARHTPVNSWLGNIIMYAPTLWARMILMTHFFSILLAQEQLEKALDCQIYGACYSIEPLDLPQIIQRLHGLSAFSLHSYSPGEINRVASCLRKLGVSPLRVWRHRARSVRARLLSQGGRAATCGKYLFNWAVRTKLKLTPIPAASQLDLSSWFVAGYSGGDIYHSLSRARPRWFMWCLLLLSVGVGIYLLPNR

Structure (SMILES): O=C(O)c1ccc(Oc2ccccc2)cc1NS(=O)(=O)c1ccc(Br)cc1F
- IC50 [1]: 0.31 µM

Structure (SMILES): O=C(O)c1ccc(Cl)cc1NS(=O)(=O)c1cc(F)c(Br)cc1F
- IC50 [1]: 6.8 µM

Structure (SMILES): Cc1cc(NS(=O)(=O)c2cc(Cl)c(Cl)cc2Cl)no1
- IC50 [1]: 100 µM

Structure (SMILES): O=C(O)c1ccc(Oc2ccccc2)cc1NS(=O)(=O)c1ccc(Br)s1
- IC50 [1]: 0.61 µM

Structure (SMILES): O=C(O)c1cc(Oc2ccccc2)ccc1NS(=O)(=O)c1ccc(Br)cc1F
- IC50 [2]: > 100 µM
- IC50 (Cytochrome P450 2D6): > 30 µM
- Activity (Hepatitis C virus): inactive
- IC50 [3]: 0.052 µM
- IC50 [4]: 0.2 µM
- IC50 (Cytochrome P450 1A2): > 30 µM
- IC50 [5]: 0.093 µM
- IC50 (Cytochrome P450 2C19): 1.1 µM
- IC50 [6]: 1.8 µM
- IC50 [1]: 0.11 µM
- solubility thermodynamic at 24 h [7]: > 900 µg/mL
- IC50 (Cytochrome P450 2C9): 1.1 µM
- half-life at 10 µM [8]: 27 min
- IC50 (Cytochrome P450 3A4): 26 µM
- Ratio IC50 [9]: 15
- Papp A→B [10]: < 0.1 ×10⁻⁶ cm/s

Structure (SMILES): Cc1ccc(S(=O)(=O)Nc2cc(Oc3ccccc3)ccc2C(=O)O)cc1
- IC50 [2]: > 100 µM
- IC50 (Cytochrome P450 2D6): > 30 µM
- Activity (Hepatitis C virus): inactive
- IC50 [3]: 0.052 µM
- IC50 [4]: 0.1 µM
- IC50 (Cytochrome P450 1A2): > 30 µM
- IC50 [5]: 0.077 µM
- IC50 (Cytochrome P450 2C19): 7.9 µM
- IC50 [6]: 1.2 µM
- IC50 [1]: 0.072 µM
- solubility thermodynamic at 24 h [7]: > 700 µg/mL
- IC50 (Cytochrome P450 2C9): 3.1 µM
- half-life at 10 µM [8]: 17 min
- IC50 (Cytochrome P450 3A4): > 30 µM
- Ratio IC50 [9]: 15
- Papp A→B [10]: 2.4 ×10⁻⁶ cm/s

Structure (SMILES): O=C(O)c1ccccc1NS(=O)(=O)c1cc(Cl)c(Cl)cc1Cl
- IC50 [1]: 26 µM

Structure (SMILES): O=C(O)c1ccc(Cl)cc1NS(=O)(=O)c1cc(Cl)c(Cl)cc1Cl
- IC50 [1]: 11 µM

Structure (SMILES): Cc1ccc(S(=O)(=O)Nc2ccc(Oc3ccccc3)cc2C(=O)O)cc1
- IC50 [2]: > 100 µM
- IC50 (Cytochrome P450 2D6): > 30 µM
- Activity (Hepatitis C virus): inactive
- IC50 [4]: 0.17 µM
- IC50 (Cytochrome P450 1A2): 1.8 µM
- IC50 (Cytochrome P450 2C19): > 30 µM
- IC50 [6]: 1.2 µM
- IC50 [1]: 0.086 µM
- solubility thermodynamic at 24 h [7]: > 900 µg/mL
- IC50 (Cytochrome P450 2C9): 3 µM
- half-life at 10 µM [8]: 11 min
- IC50 (Cytochrome P450 3A4): > 30 µM
- Ratio IC50 [9]: 15
- Papp A→B [10]: 2.2 ×10⁻⁶ cm/s

The next lines start with the values.

- IC50 [1]: 4.5 µM
Structure (SMILES): O=C(O)c1cc(Br)ccc1NS(=O)(=O)c1cc(F)c(Br)cc1F

- IC50 [1]: 8.4 µM
Structure (SMILES): O=C(O)c1cc(Br)ccc1NS(=O)(=O)c1ccc(Cl)c(Cl)c1

- IC50 [1]: 6.1 µM
Structure (SMILES): O=C(O)c1cc(Br)ccc1NS(=O)(=O)c1ccc(Br)s1

- IC50 [1]: 4.6 µM
Structure (SMILES): O=C(O)c1ccc(Cl)cc1NS(=O)(=O)c1ccc(Br)s1

- IC50 [1]: 6.7 µM
Structure (SMILES): O=C(O)c1ccc(-c2ccccc2)cc1NS(=O)(=O)c1ccc(Br)s1

- IC50 [1]: 3.7 µM
Structure (SMILES): O=C(O)c1cc(-c2ccccc2)ccc1NS(=O)(=O)c1ccc(Br)s1

- IC50 [1]: 0.55 µM
Structure (SMILES): O=C(O)c1cc(Oc2ccccc2)ccc1NS(=O)(=O)c1ccc(Br)s1

- IC50 [1]: 43 µM
Structure (SMILES): O=C(O)c1cc(Br)ccc1NS(=O)(=O)c1ccccc1

- IC50 [1]: 9 µM
Structure (SMILES): O=C(O)c1cc(Br)ccc1NS(=O)(=O)c1cc(Cl)c(Cl)cc1Cl
